In ChEMBL document CHEMBL5608177, “Antitumor activity and transcriptome sequencing (RNA-seq) analyses of hepatocellular carcinoma cells in response to exposure triterpene-nucleoside conjugates” (Eur J Med Chem, 2024):
Active and inactive are the calls of the source. The calls are words filed in the database; no cut-off is given here.

What was measured:
SMMC-7721 [1] = test: Antiproliferative activity against human SMMC-7721 cells assessed as inhibition of cell growth incubated for 48 hrs by CCK-8 reagent based spectrophotometric analysis; type: functional; settings: SMMC-7721, 48 h
KYSE-150 cell line = test: Antiproliferative activity against human KYSE-150 cell line assessed as inhibition of cell growth incubated for 48 hrs by CCK-8 reagent based spectrophotometric analysis; type: functional; settings: KYSE-150, 48 h
MCF7 = test: Antiproliferative activity against human MCF7 cells assessed as inhibition of cell growth incubated for 48 hrs by CCK-8 reagent based spectrophotometric analysis; type: functional; settings: MCF7, 48 h
HepG2 = test: Antiproliferative activity against human HepG2 cells assessed as inhibition of cell growth incubated for 48 hrs by CCK-8 reagent based spectrophotometric analysis; type: functional; settings: HepG2, 48 h
HeLa = test: Antiproliferative activity against human HeLa cells assessed as inhibition of cell growth incubated for 48 hrs by CCK-8 reagent based spectrophotometric analysis; type: functional
A549 = test: Antiproliferative activity against human A549 cells assessed as inhibition of cell growth incubated for 48 hrs by CCK-8 reagent based spectrophotometric analysis; type: functional; settings: A549, 48 h
SW-620 = test: Antiproliferative activity against human SW620 cells assessed as inhibition of cell growth incubated for 48 hrs by CCK-8 reagent based spectrophotometric analysis; type: functional; settings: SW-620, 48 h
PC-3 = test: Antiproliferative activity against human PC-3 cells assessed as inhibition of cell growth incubated for 48 hrs by CCK-8 reagent based spectrophotometric analysis; type: functional; settings: PC-3, 48 h
SMMC-7721 [2] = test: Antitumor activity against human SMMC-7721 cells xenografted in BALB/c mouse assessed as reduction in tumor growth at 25 mg/kg,ip administrated 3 times weekly for 3 weeks; type: functional, organism-based
SMMC-7721 [3] = test: Antitumor activity against human SMMC-7721 cells xenografted in BALB/c mouse assessed as reduction in tumor weight at 25 mg/kg,ip administrated 3 times weekly for 3 weeks; type: functional, organism-based
SMMC-7721 [4] = test: Antitumor activity against human SMMC-7721 cells xenografted in BALB/c mouse assessed as reduction in tumor weight at 25 mg/kg,ip administrated 3 times weekly for 3 weeks (reference value: 0.573 +/- 0.137 g); type: functional
SMMC-7721 [5] = test: Antitumor activity against human SMMC-7721 cells xenografted in BALB/c mouse assessed as inhibition of tumor growth at 25 mg/kg,ip administrated 3 times weekly for 3 weeks relative to control; type: functional; parameters: scale not given: the % may be the effect or the level left
[6] = Aqueous solubility of the compound in […] by HPLC analysis; type: physicochemical

Row | IC50 (SMMC-7721 [1]) [µM] | IC50 (MCF7) [µM] | IC50 (HepG2) [µM] | IC50 (HeLa) [µM] | IC50 (A549) [µM] | IC50 (SW-620) [µM] | IC50 (PC-3) [µM] | Structure (SMILES) | IC50 (KYSE-150 cell line) [µM] | Activity (SMMC-7721 [2]) | Activity (SMMC-7721 [3]) | Activity (SMMC-7721 [4]) [g] | Activity (SMMC-7721 [5]) [%] | solubility [6] [µM]
1 | > 100 | > 100 | > 100 | > 100 | > 100 | > 100 | > 100 | C=C(C)[C@@H]1CC[C@]2(C(=O)O)CC[C@]3(C)[C@H](CC[C@@H]4[C@@]5(C)C[C@@H](Cc6cn([C@]7(CO)O[C@@H](n8ccc(O)nc8=O)[C@H](O)[C@@H]7O)nn6)[C@H](O)C(C)(C)[C@@H]5CC[C@]43C)[C@@H]12 | > 100 |  |  |  |  | 
2 | 70.2 | 70.2 | 55.8 | 24.1 | > 100 | 18 | > 100 | C=C(C)[C@@H]1CC[C@]2(C(=O)OC)CC[C@]3(C)[C@H](CC[C@@H]4[C@@]5(C)C[C@@H](Cc6cn([C@]7(CO)O[C@@H](n8ccc(N)nc8=O)[C@@H](F)[C@@H]7O)nn6)[C@H](O)C(C)(C)[C@@H]5CC[C@]43C)[C@@H]12 | 29.3 |  |  |  |  | 
3 | 67.3 | 87.6 | 85.7 | 46.2 | > 100 | 48.9 | > 100 | C=C(C)[C@@H]1CC[C@]2(C(=O)OC)CC[C@]3(C)[C@H](CC[C@@H]4[C@@]5(C)C[C@@H](Cc6cn([C@]7(CO)O[C@@H](n8ccc(N)nc8=O)[C@H](O)[C@@H]7O)nn6)[C@H](O)C(C)(C)[C@@H]5CC[C@]43C)[C@@H]12 | 20.7 |  |  |  |  | 
4 |  |  |  |  |  |  |  | CC(=O)O[C@H]1C(=O)[C@@]2(C)[C@H]([C@H](OC(=O)c3ccccc3)[C@]3(O)C[C@H](OC(=O)[C@H](O)[C@@H](NC(=O)c4ccccc4)c4ccccc4)C(C)=C1C3(C)C)[C@]1(OC(C)=O)CO[C@@H]1C[C@@H]2O [PACLITAXEL] |  | inactive | inactive | 0.22 | 61.6 | 
5 | 15 | 7.01 | 38.4 | 16.4 | 64.4 | 17.5 | 26.6 | C=C(C)[C@@H]1CC[C@]2(C(=O)O)CC[C@]3(C)[C@H](CC[C@@H]4[C@@]5(C)C[C@@H](Cc6cn([C@H]7C[C@H](n8cc(C)c(O)nc8=O)O[C@@H]7CO)nn6)[C@H](O)C(C)(C)[C@@H]5CC[C@]43C)[C@@H]12 | 7.53 |  |  |  |  | 
6 | > 100 | > 100 | > 100 | > 100 | > 100 | > 100 | > 100 | C=C(C)[C@@H]1CC[C@]2(C(=O)O)CC[C@]3(C)[C@H](CC[C@@H]4[C@@]5(C)C[C@@H](Cc6cn([C@]7(CO)O[C@@H](n8ccc(O)nc8=O)[C@@H](F)[C@@H]7O)nn6)[C@H](O)C(C)(C)[C@@H]5CC[C@]43C)[C@@H]12 | > 100 |  |  |  |  | 
7 | 40.5 | 55.3 | 62.9 | 27.9 | 70.8 | 19.1 | 45.5 | C=C(C)[C@@H]1CC[C@]2(C(=O)OC)CC[C@]3(C)[C@H](CC[C@@H]4[C@@]5(C)C[C@@H](Cc6cn([C@]7(CO)O[C@@H](n8ccc(O)nc8=O)[C@H](O)[C@@H]7O)nn6)C(=O)C(C)(C)[C@@H]5CC[C@]43C)[C@@H]12 | 36.4 |  |  |  |  | 
8 | > 100 | > 100 | > 100 | > 100 | 20.7 | > 100 | > 100 | Cc1cn([C@H]2C[C@H](N=[N+]=[N-])[C@@H](CO)O2)c(=O)[nH]c1=O [ZIDOVUDINE] | > 100 |  |  |  |  | 
9 | 17 | 62 | 72.7 | 15.3 | > 100 | 28.1 | 86.2 | C=C(C)[C@@H]1CC[C@]2(C(=O)O)CC[C@]3(C)[C@H](CC[C@@H]4[C@@]5(C)C[C@@H](Cc6cn([C@]7(CO)O[C@@H](n8ccc(N)nc8=O)[C@H](O)[C@@H]7O)nn6)[C@H](O)C(C)(C)[C@@H]5CC[C@]43C)[C@@H]12 | 42.4 |  |  |  |  | 
10 | 68.5 | > 100 | > 100 | 40.4 | > 100 | 35.8 | > 100 | C=C(C)[C@@H]1CC[C@]2(C(=O)OC)CC[C@]3(C)[C@H](CC[C@@H]4[C@@]5(C)C[C@@H](Cc6cn([C@]7(CO)O[C@@H](n8ccc(N)nc8=O)[C@H](O)[C@@H]7O)nn6)C(=O)C(C)(C)[C@@H]5CC[C@]43C)[C@@H]12 | 68.7 |  |  |  |  | 
11 | 32.7 | 39.4 | 19.5 | 20.6 | 41.2 | 8.75 | 18.1 | C=C(C)[C@@H]1CC[C@]2(C(=O)OC)CC[C@]3(C)[C@H](CC[C@@H]4[C@@]5(C)C[C@@H](Cc6cn([C@H]7C[C@H](n8cc(C)c(O)nc8=O)O[C@@H]7CO)nn6)[C@H](O)C(C)(C)[C@@H]5CC[C@]43C)[C@@H]12 | 7.82 |  |  |  |  | 
12 | 37.3 | 26.6 | 44.6 | 20 | 53.2 | 25.9 | 41 | C=C(C)[C@@H]1CC[C@]2(C(=O)OC)CC[C@]3(C)[C@H](CC[C@@H]4[C@@]5(C)C[C@@H](Cc6cn([C@]7(CO)O[C@@H](n8ccc(O)nc8=O)[C@H](O)[C@@H]7O)nn6)[C@H](O)C(C)(C)[C@@H]5CC[C@]43C)[C@@H]12 | 20.3 |  |  |  |  | 
13 | 24.5 | 23.3 | 37.5 | 15.1 | 36.4 | 15.2 | 23.5 | C=C(C)[C@@H]1CC[C@]2(C(=O)OC)CC[C@]3(C)[C@H](CC[C@@H]4[C@@]5(C)C[C@@H](Cc6cn([C@]7(CO)O[C@@H](n8ccc(O)nc8=O)[C@@H](F)[C@@H]7O)nn6)[C@H](O)C(C)(C)[C@@H]5CC[C@]43C)[C@@H]12 | 10.7 |  |  |  |  | 
14 | 52.7 | 61.4 | 69.9 | 28.2 | > 100 | 31.2 | > 100 | C=C(C)[C@@H]1CC[C@]2(C(=O)OC)CC[C@]3(C)[C@H](CC[C@@H]4[C@@]5(C)C[C@@H](Cc6cn([C@]7(CO)O[C@@H](n8ccc(N)nc8=O)[C@@H](F)[C@@H]7O)nn6)C(=O)C(C)(C)[C@@H]5CC[C@]43C)[C@@H]12 | 19.2 |  |  |  |  | 
15 | > 100 | > 100 | > 100 | > 100 | > 100 | > 100 | > 100 | C=C(C)[C@@H]1CC[C@]2(C(=O)O)CC[C@]3(C)[C@H](CC[C@@H]4[C@@]5(C)C[C@@H](Cc6cn([C@]7(CO)O[C@@H](n8ccc(N)nc8=O)[C@@H](F)[C@@H]7O)nn6)[C@H](O)C(C)(C)[C@@H]5CC[C@]43C)[C@@H]12 | > 100 |  |  |  |  | 

Row | Structure (SMILES) | IC50 (SMMC-7721 [1]) [µM] | IC50 (MCF7) [µM] | IC50 (HepG2) [µM] | IC50 (HeLa) [µM] | IC50 (A549) [µM] | IC50 (SW-620) [µM] | IC50 (PC-3) [µM] | IC50 (KYSE-150 cell line) [µM] | Activity (SMMC-7721 [2]) | Activity (SMMC-7721 [3]) | Activity (SMMC-7721 [4]) [g] | Activity (SMMC-7721 [5]) [%] | solubility [6] [µM]
16 | C=C(C)[C@@H]1CC[C@]2(C(=O)O)CC[C@]3(C)[C@H](CC[C@@H]4[C@@]5(C)CC[C@H](O)C(C)(C)[C@@H]5CC[C@]43C)[C@@H]12 [BETULINIC ACID] | 43.6 | 54.8 | 40 | 31.3 | 69.8 | 54.3 | > 100 | 23.9 |  |  |  |  | < 0.11
